# Several values for one entry are separate records, joined by “and”; a condition that tells them apart may be missing. Equal entries are not always repeated. Where two headings read alike, the source gives them in different places.
# Assays:
# [1] = Biodistribution of 2-[125I]BP and 3-[125I]BP in Sprague Dawley rats; type: in vivo; conditions: for Biodistribution Blood / Biodistribution Brain / Biodistribution Heart / Biodistribution Kidney / Biodistribution Liver / Biodistribution Lung / Biodistribution Muscle / Biodistribution Spleen / Biodistribution Thyroid: average of four rats
# Procedure: A similar procedure was performed with 2-[^125I]BP and 3-[^125I]BP but blood samples were only collected at 1, 6 and 24 hours.
# [2] = for Biodistribution Blood / Biodistribution Bone / Biodistribution Brain / Biodistribution Gonads / Biodistribution Heart / Biodistribution Kidney / Biodistribution Liver / Biodistribution Lunq / Biodistribution Muscle / Biodistribution Spleen / Biodistribution Thyroid: Wistar male rats, average of four rats
# Procedure: Male Wistar rats (200-230g), while under anesthesia, were injected intravenously with 0.1 ml of a saline solution containing 20% ethanol solution of 4-[^125I]BP (4-5 μCi). At 1, 4, 6 and 24 hr. after injection, blood samples were collected by cardiac puncture and the […] were sacrificed immediately thereafter by cardiectomy while under anesthesia. The organs of interest were subsequently excised, blotted with tissue paper, weighed, and the radioactivity was counted using a Packard automatic counter (autogamma 5650). The % injected dose/g (% ID/g) values were determined by comparison of tissue radioactivities with suitably diluted aliquots of the injected 4-[^125I]BP dose divided by the weight of the organ.
smiles,measurement,setting,value
"O=C(NC1CCN(Cc2ccccc2)CC1)c1ccccc1[125I] [2-[^125I]BP, ^125I-(N-benzylpiperidin-4-yl)-2-iodobenzamide]",clearance,[1],fast clearance from the blood and normal organs
same,Biodistribution Blood,[1]; 1 hr.,2.06 ± 0.42 % ID/whole organ
same,Biodistribution Brain,[1]; 1 hr.,0.48 ± 0.12 % ID/whole organ
same,Biodistribution Heart,[1]; 1 hr.,0.17 ± 0.03 % ID/whole organ
same,Biodistribution Kidney,[1]; 1 hr.,1.68 ± 0.08 % ID/whole organ
same,Biodistribution Liver,[1]; 1 hr.,22.36 ± 1.29 % ID/whole organ
same,Biodistribution Lung,[1]; 1 hr.,1.06 ± 0.21 % ID/whole organ
same,Biodistribution Muscle,[1]; 1 hr.,16.15 ± 2.13 % ID/whole organ
same,Biodistribution Spleen,[1]; 1 hr.,0.32 ± 0.07 % ID/whole organ
same,Biodistribution Thyroid,[1]; 1 hr.,0.14 ± 0.04 % ID/whole organ
same,Biodistribution Blood,[1]; 6 hr.,1.30 ± 0.12 % ID/whole organ
same,Biodistribution Brain,[1]; 6 hr.,0.05 ± 0.01 % ID/whole organ
same,Biodistribution Heart,[1]; 6 hr.,0.05 ± 0.00 % ID/whole organ
same,Biodistribution Kidney,[1]; 6 hr.,0.39 ± 0.06 % ID/whole organ
same,Biodistribution Liver,[1]; 6 hr.,6.07 ± 0.18 % ID/whole organ
same,Biodistribution Lung,[1]; 6 hr.,0.21 ± 0.02 % ID/whole organ
same,Biodistribution Muscle,[1]; 6 hr.,6.75 ± 0.32 % ID/whole organ
same,Biodistribution Spleen,[1]; 6 hr.,0.12 ± 0.01 % ID/whole organ
same,Biodistribution Thyroid,[1]; 6 hr.,1.91 ± 0.23 % ID/whole organ
same,Biodistribution Blood,[1]; 24 hr.,0.50 ± 0.05 % ID/whole organ
same,Biodistribution Brain,[1]; 24 hr.,0.01 ± 0.00 % ID/whole organ
same,Biodistribution Heart,[1]; 24 hr.,0.01 ± 0.00 % ID/whole organ
same,Biodistribution Kidney,[1]; 24 hr.,0.05 ± 0.01 % ID/whole organ
same,Biodistribution Liver,[1]; 24 hr.,0.59 ± 0.02 % ID/whole organ
same,Biodistribution Lung,[1]; 24 hr.,0.04 ± 0.00 % ID/whole organ
same,Biodistribution Muscle,[1]; 24 hr.,1.95 ± 0.11 % ID/whole organ
same,Biodistribution Spleen,[1]; 24 hr.,0.02 ± 0.00 % ID/whole organ
same,Biodistribution Thyroid,[1]; 24 hr.,2.11 ± 0.35 % ID/whole organ
"O=C(NC1CCN(Cc2ccccc2)CC1)c1cccc([125I])c1 [3-[^125I]BP, ^125I-(N-Benzylpiperidin-4-yl)-3-iodobenzamide]",clearance,[1],fast clearance from the blood
same,Biodistribution Blood,[1]; 1 hr.,0.75 % ID/whole organ and 0.75 ± 0.05 % ID/whole organ
same,Biodistribution Brain,[1]; 1 hr.,0.61 ± 0.04 % ID/whole organ
same,Biodistribution Heart,[1]; 1 hr.,0.15 ± 0.01 % ID/whole organ
same,Biodistribution Kidney,[1]; 1 hr.,3.49 ± 0.23 % ID/whole organ
same,Biodistribution Liver,[1]; 1 hr.,13.35 ± 0.62 % ID/whole organ
same,Biodistribution Lung,[1]; 1 hr.,0.82 ± 0.07 % ID/whole organ
same,Biodistribution Muscle,[1]; 1 hr.,9.36 ± 0.58 % ID/whole organ
same,Biodistribution Spleen,[1]; 1 hr.,0.47 ± 0.02 % ID/whole organ
same,Biodistribution Thyroid,[1]; 1 hr.,0.13 ± 0.02 % ID/whole organ
same,Biodistribution Blood,[1]; 6 hr.,0.55 ± 0.13 % ID/whole organ
same,Biodistribution Brain,[1]; 6 hr.,0.53 ± 0.26 % ID/whole organ
same,Biodistribution Heart,[1]; 6 hr.,0.07 ± 0.01 % ID/whole organ
same,Biodistribution Kidney,[1]; 6 hr.,2.25 ± 0.16 % ID/whole organ
same,Biodistribution Liver,[1]; 6 hr.,9.06 ± 0.71 % ID/whole organ
same,Biodistribution Lung,[1]; 6 hr.,0.43 ± 0.05 % ID/whole organ
same,Biodistribution Muscle,[1]; 6 hr.,1.23 ± 0.49 % ID/whole organ
same,Biodistribution Spleen,[1]; 6 hr.,0.37 ± 0.05 % ID/whole organ
same,Biodistribution Thyroid,[1]; 6 hr.,0.53 ± 0.26 % ID/whole organ
same,Biodistribution Blood,[1]; 24 hr.,0.52 ± 0.05 % ID/whole organ
same,Biodistribution Brain,[1]; 24 hr.,0.81 ± 0.07 % ID/whole organ
same,Biodistribution Heart,[1]; 24 hr.,0.15 ± 0.01 % ID/whole organ
same,Biodistribution Kidney,[1]; 24 hr.,1.75 ± 0.13 % ID/whole organ
same,Biodistribution Liver,[1]; 24 hr.,6.65 ± 1.63 % ID/whole organ
same,Biodistribution Lung,[1]; 24 hr.,1.05 ± 0.04 % ID/whole organ
same,Biodistribution Muscle,[1]; 24 hr.,03.7 ± 0.44 % ID/whole organ
same,Biodistribution Spleen,[1]; 24 hr.,0.65 ± 0.08 % ID/whole organ
same,Biodistribution Thyroid,[1]; 24 hr.,3.43 ± 0.21 % ID/whole organ
"O=C(NC1CCN(Cc2ccccc2)CC1)c1ccc([125I])cc1 [4-[^125I]BP, ^125I-(N-Benzylpiperidin-4-yl)-4-iodobenzamide]",Biodistribution Blood,[2]; 1 hr.,0.04 ± 0.00 % ID/g
same,Biodistribution Bone,[2]; 1 hr.,0.24 ± 0.01 % ID/g
same,Biodistribution Brain,[2]; 1 hr.,1.24 ± 0.13 % ID/g
same,Biodistribution Gonads,[2]; 1 hr.,0.39 ± 0.03 % ID/g
same,Biodistribution Heart,[2]; 1 hr.,0.75 ± 0.05 % ID/g
same,Biodistribution Kidney,[2]; 1 hr.,2.10 ± 0.15 % ID/g
same,Biodistribution Liver,[2]; 1 hr.,4.77 ± 0.13 % ID/g
same,Biodistribution Lunq,[2]; 1 hr.,5.05 ± 0.26 % ID/g
same,Biodistribution Muscle,[2]; 1 hr.,0.24 ± 0.02 % ID/g
same,Biodistribution Spleen,[2]; 1 hr.,1.60 ± 0.10 % ID/g
same,Biodistribution Thyroid,[2]; 1 hr.,0.07 ± 0.01 % ID/g
same,Biodistribution Blood,[2]; 4 hr.,0.02 ± 0.00 % ID/g
same,Biodistribution Bone,[2]; 4 hr.,0.24 ± 0.05 % ID/g
same,Biodistribution Brain,[2]; 4 hr.,1.29 ± 0.05 % ID/g
same,Biodistribution Gonads,[2]; 4 hr.,0.30 ± 0.02 % ID/g
same,Biodistribution Heart,[2]; 4 hr.,0.74 ± 0.04 % ID/g
same,Biodistribution Kidney,[2]; 4 hr.,2.05 ± 0.02 % ID/g
same,Biodistribution Liver,[2]; 4 hr.,7.76 ± 0.36 % ID/g
same,Biodistribution Lunq,[2]; 4 hr.,5.22 ± 0.78 % ID/g
same,Biodistribution Muscle,[2]; 4 hr.,0.20 ± 0.02 % ID/g
same,Biodistribution Spleen,[2]; 4 hr.,1.51 ± 0.19 % ID/g
same,Biodistribution Thyroid,[2]; 4 hr.,0.12 ± 0.00 % ID/g
same,Biodistribution Blood,[2]; 6 hr.,0.04 ± 0.00 % ID/g
same,Biodistribution Bone,[2]; 6 hr.,0.44 ± 0.03 % ID/g
same,Biodistribution Brain,[2]; 6 hr.,1.23 ± 0.08 % ID/g
same,Biodistribution Gonads,[2]; 6 hr.,0.34 ± 0.01 % ID/g
same,Biodistribution Heart,[2]; 6 hr.,0.75 ± 0.02 % ID/g
same,Biodistribution Kidney,[2]; 6 hr.,2.10 ± 0.08 % ID/g
same,Biodistribution Liver,[2]; 6 hr.,7.20 ± 0.40 % ID/g
same,Biodistribution Lunq,[2]; 6 hr.,4.85 ± 0.17 % ID/g
same,Biodistribution Muscle,[2]; 6 hr.,0.12 ± 0.02 % ID/g
same,Biodistribution Spleen,[2]; 6 hr.,1.57 ± 0.12 % ID/g
same,Biodistribution Thyroid,[2]; 6 hr.,0.23 ± 0.05 % ID/g
same,Biodistribution Blood,[2]; 24 hr.,0.02 ± 0.00 % ID/g
same,Biodistribution Bone,[2]; 24 hr.,0.47 ± 0.07 % ID/g
same,Biodistribution Brain,[2]; 24 hr.,1.24 ± 0.06 % ID/g
same,Biodistribution Gonads,[2]; 24 hr.,0.34 ± 0.01 % ID/g
same,Biodistribution Heart,[2]; 24 hr.,0.65 ± 0.03 % ID/g
same,Biodistribution Kidney,[2]; 24 hr.,1.54 ± 0.05 % ID/g
same,Biodistribution Liver,[2]; 24 hr.,5.37 ± 0.53 % ID/g
same,Biodistribution Lunq,[2]; 24 hr.,3.70 ± 0.38 % ID/g
same,Biodistribution Muscle,[2]; 24 hr.,0.12 ± 0.01 % ID/g
same,Biodistribution Spleen,[2]; 24 hr.,1.47 ± 0.28 % ID/g
same,Biodistribution Thyroid,[2]; 24 hr.,0.29 ± 0.04 % ID/g
same,clearance from the blood pool,[2]; Wistar rats,cleared quickly
same,crossing of the blood brain barrier,"[2]; Wistar rats, retained in the brain after 24 hours",crossed the blood brain barrier
same,in vivo dehalogenation (thyroid activity after 24 hours),"[2]; rat, in vivo",no in vivo dehalogenation

# Source: patent publication US6447748B1, “Benzamide compounds for cancer imaging and therapy” (Research Corporation Technologies, Inc., priority 1993, dated 2002)
